Results from publication PMC10115881, “Disrupting the α-synuclein-ESCRT interaction with a peptide inhibitor mitigates neurodegeneration in preclinical models of Parkinson’s disease” (Nature Communications, 2023).

How the values were obtained:
[1] = tested on: WT a-syn expressing HEK293 cells; assay: Cell Titer-Glo cell viability, WT a-syn expressing cells; format: cell-based, human; settings: WT alpha-synuclein; for Cell viability: MG132 10 μM, 72 h; for cell viability effect of peptides: Supp Figure 1A;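 for cell viability effect of peptides: measured without MG132 proteasome inhibitor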
Method: (§1) Oligonucleotides encoding the specific peptides were synthesized and individually cloned into the pLJM1 nGFP lentiviral vector. HEK293T cells were infected with individual constructs, and cell viability was assessed using Cell Titer-Glo luminescent assay (Promega) at 72 h post infection.
(§2) Cells were trypsinized from subconfluent cultures as described earlier, suspended in culture media, and then seeded into triplicate wells of a 96-well plate (100 µl/well) at a density of 1.5 × 10^4 cells per well with standard culture conditions of 5% CO2 at 37 °C. Cells were infected with lentivirus expressing peptide at a MOI of 5 for 72 h or transfected with plasmid for 72 h. Cell Titer-Glo reagent was added to each well (30 µL), according to the manufacturer’s protocol and […].

A53T a-syn = A53T a-syn protein level in HEK293 cells by immunoblot; format: cell-based, human
Method: Infected or transfected cells were scraped from six-well dishes and lysed with lysis buffer (50 mM Tris-HCl pH 7.4, 1% Nonidet P-40, 150 mM NaCl, 1 mM EDTA, 1× protease inhibitor mixture (Sigma)) for 30 min at 4 °C. The insoluble pellet was removed following a 10,000 rpm spin for 5 min at 4 °C. Lysates were analyzed by SDS-PAGE/immunoblot using 4–20% Mini-PROTEAN Tris-glycine gels (Bio-Rad), transferred to polyvinylidene fluoride (PVDF) membranes, and blocked in 5% milk containing PBS-Tween-20 (0.1%) for 1 h. PVDF membranes were then incubated with specified primary antibodies followed by incubation with horseradish peroxidase-conjugated secondary antibodies (anti-mouse HRP-linked, Cell Signaling, catalog #7076, 1:5000; anti-rabbit HRP-linked, Cell Signaling, catalog #7074, 1:5000) and detected using enhanced chemiluminescence (GE Healthcare). Anti-a-syn antibody (clone 42) was obtained from BD Biosciences (catalog #610787, 1:1000). Anti-LAMP1 antibody was obtained from Abcam (catalog #ab24170, 1:500). Anti-beta-actin antibody was obtained from Cell Signaling (13E5) (catalog #4970, 1:1000). Anti-CD63 antibody was obtained from R&D Systems (catalog #MAB50482-SP, 1:1000).

Parent HEK293 cells = assay: Cell Titer-Glo cell viability, parent cells; format: cell-based, human; settings: for Cell viability: MG132 10 μM, 72 h; for cell viability effect of peptides: Supp Figure 1A;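 for cell viability effect of peptides: measured without MG132 proteasome inhibitor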
Method: as §1, §2

A53T a-syn oligomers = assay: Luciferase PCA of A53T a-syn oligomers; format: cell-based, human; settings: for Effect on A53T a-syn oligomers: luciferase PCA, n=3
Method: as §1
(§3) Tet-off HEK293 cells stably expressing split luciferase-a-syn constructs and tet-off parent HEK293 cell lines were maintained in DMEM supplemented with 10% FBS and 1% pen/strep/glutamine. […] Cells were trypsinized from subconfluent culture and seeded in a 96-well plate at a density of 15,000 cells per well. Cells were incubated overnight at 37 °C in 5% CO2. Cells were transfected with GFP-peptide plasmids. After 6 h of incubation, 20 µL of cell medium was transferred to a black flat-bottomed 96-well plate. Fifty microliters of Working solution (Pierce Gaussia-Firefly Luciferase Dual Assay Kit, Thermo Scientific, 16181) were added into each well containing cell medium. Immediately after adding the reagent, samples were read using a luminometer with a 480 nm filter.

WT a-syn oligomers = assay: Luciferase PCA of WT a-syn oligomers; format: cell-based, human; settings: for Oligomers %: WT oligomers, luciferase activity; for Effect on WT a-syn oligomers: luciferase PCA
Method: as §1, §3

Flag-CHMP2B = assay: Co-immunoprecipitation of Flag-CHMP2B with GFP-peptides; format: cell-based; settings: n = 3
Method: HEK293T cells were co-transfected with Flag-tagged target protein, HA-tagged source protein, and GFP-tagged peptide or GFP. Cells were lysed 48 h after transfections with radioimmune precipitation assay buffer (50 mM Tris-HCl pH 7.4, 1% Nonidet P-40, 150 mM NaCl, 1 mM EDTA, 10 mM Na3VO4, 10 mM sodium pyrophosphate, 25 mM NaF, 1× protease inhibitor mixture (Sigma)) for 30 min at 4 °C and co-immunoprecipitated with Flag beads (Clontech). The resulting immunocomplexes were analyzed by immunoblot using the appropriate antibodies. Protein samples were separated using 4–20% Mini-PROTEAN Tris-glycine gels (Bio-Rad) transferred to PVDF membranes and blocked in 5% milk containing PBS-Tween-20 (0.1%) for 1 h. PVDF membranes were then incubated with specified primary antibodies followed by incubation with horseradish peroxidase-conjugated secondary antibodies (anti-mouse HRP-linked, Cell Signaling, catalog #7076, 1:5000; anti-rabbit HRP-linked, Cell Signaling, catalog #7074, 1:5000) and detected using enhanced chemiluminescence (GE Healthcare). HA antibodies were obtained from Santa Cruz (catalog #7392, 1:2000), GFP antibodies were purchased from Abcam (catalog #ab290, 1:2000), and Flag antibodies were purchased from Sigma (catalog #A8592, 1:1000).

[2] = tested on: A53T a-syn expressing HEK293 cells; assay: Cell Titer-Glo cell viability, A53T a-syn expressing cells; format: cell-based, human; settings: for cell viability effect of peptides: A53T a-syn, Supp Figure 1A; for Cell viability: A53T, MG132 10 μM, 72 h; for Effect of MIM motif peptides on cell viability in A53T a-syn expressing cells: Supp Figure 1H
Method in brief: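 HEK293 cells (1.5 × 10^4 per well, triplicate) were infected with peptide-expressing lentivirus at MOI 5 or transfected with plasmid for 72 h at 37 °C, 5% CO2. Viability was then measured with Cell Titer-Glo, […].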

DEEIERQLKALG [PDpep1.3]
Cell viability ([1]; replicate 1): 5800 | Cell viability ([1]; replicate 2): 5300 | Cell viability ([1]; replicate 3): 6000 | cell viability effect of peptides ([1]; replicate 1): 14300 | cell viability effect of peptides ([1]; replicate 2): 13800 | cell viability effect of peptides ([1]; replicate 3): 14100 | Effect on A53T a-syn protein level (A53T a-syn): reduction in a-syn | Cell viability (Parent HEK293 cells; replicate 1): 4900 | Cell viability (Parent HEK293 cells; replicate 2): 4200 | Cell viability (Parent HEK293 cells; replicate 3): 4500 | cell viability effect of peptides (Parent HEK293 cells; replicate 1): 13700 | cell viability effect of peptides (Parent HEK293 cells; replicate 2): 13400 | cell viability effect of peptides (Parent HEK293 cells; replicate 3): 13100 | Effect on A53T a-syn oligomers (A53T a-syn oligomers): significant reduction in A53T a-syn oligomers | A53T a-syn oligomers as measured by luciferase activity (A53T a-syn oligomers; replicate 1): 222198 | A53T a-syn oligomers as measured by luciferase activity (A53T a-syn oligomers; replicate 2): 195592 | A53T a-syn oligomers as measured by luciferase activity (A53T a-syn oligomers; replicate 3): 221562 | Oligomers % (WT a-syn oligomers; column 1): 99.8279% | Oligomers % (WT a-syn oligomers; column 2): 83.0465% | Oligomers % (WT a-syn oligomers; column 3): 73.1497% | Oligomers % (WT a-syn oligomers; column 4): 78.3132% | Oligomers % (WT a-syn oligomers; column 5): 63.6833% | Effect on WT a-syn oligomers (WT a-syn oligomers): significant reduction in a-syn oligomers | Interaction with CHMP2B (Flag-CHMP2B): interacted with Flag-CHMP2B | Effect on cell survival/viability ([2]; A53T a-syn cells): most prominent effects on cell survival | cell viability effect of peptides ([2]; replicate 1): 15000 | cell viability effect of peptides ([2]; replicate 2): 15800 | cell viability effect of peptides ([2]; replicate 3): 15200 | Cell viability ([2]; replicate 1): 8500 | Cell viability ([2]; replicate 2): 9100 | Cell viability ([2]; replicate 3): 9000 | Effect of MIM motif peptides on cell viability in A53T a-syn expressing cells ([2]; replicate 1): 8764 | Effect of MIM motif peptides on cell viability in A53T a-syn expressing cells ([2]; replicate 2): 8800 | Effect of MIM motif peptides on cell viability in A53T a-syn expressing cells ([2]; replicate 3): 8162

IPIQLKA [PDpep1, initial screen hit peptide IPIQLKA]
Cell viability ([1]; replicate 1): 3500 | Cell viability ([1]; replicate 2): 3600 | Cell viability ([1]; replicate 3): 3700 | cell viability effect of peptides ([1]; replicate 1): 12400 | cell viability effect of peptides ([1]; replicate 2): 12300 | cell viability effect of peptides ([1]; replicate 3): 12500 | Effect on A53T a-syn protein level (A53T a-syn): reduction in a-syn | Cell viability (Parent HEK293 cells; replicate 1): 3800 | Cell viability (Parent HEK293 cells; replicate 2): 3900 | Cell viability (Parent HEK293 cells; replicate 3): 4100 | cell viability effect of peptides (Parent HEK293 cells; replicate 1): 12300 | cell viability effect of peptides (Parent HEK293 cells; replicate 2): 12100 | cell viability effect of peptides (Parent HEK293 cells; replicate 3): 12500 | Effect on A53T a-syn oligomers (A53T a-syn oligomers): significant reduction in A53T a-syn oligomers | A53T a-syn oligomers as measured by luciferase activity (A53T a-syn oligomers; replicate 1): 221224 | A53T a-syn oligomers as measured by luciferase activity (A53T a-syn oligomers; replicate 2): 258154 | A53T a-syn oligomers as measured by luciferase activity (A53T a-syn oligomers; replicate 3): 261396 | Oligomers % (WT a-syn oligomers; column 1): 91.6523% | Oligomers % (WT a-syn oligomers; column 2): 79.1738% | Oligomers % (WT a-syn oligomers; column 3): 70.9983% | Oligomers % (WT a-syn oligomers; column 4): 79.1738% | Oligomers % (WT a-syn oligomers; column 5): 65.4045% | Effect on WT a-syn oligomers (WT a-syn oligomers): significant reduction in a-syn oligomers | Interaction with CHMP2B (Flag-CHMP2B): interacted with Flag-CHMP2B | cell viability effect of peptides ([2]; replicate 1): 12800 | cell viability effect of peptides ([2]; replicate 2): 14040 | cell viability effect of peptides ([2]; replicate 3): 13200 | Cell viability ([2]; replicate 1): 5500 | Cell viability ([2]; replicate 2): 5200 | Cell viability ([2]; replicate 3): 5000 | Effect of MIM motif peptides on cell viability in A53T a-syn expressing cells ([2]; replicate 1): 5748 | Effect of MIM motif peptides on cell viability in A53T a-syn expressing cells ([2]; replicate 2): 5350 | Effect of MIM motif peptides on cell viability in A53T a-syn expressing cells ([2]; replicate 3): 5562
